In ChEMBL document CHEMBL3885861, “Open TG-GATES”:

Species: Rattus norvegicus
Assay: Open TG-GATES - Regimen: Daily Repeat
Format: toxicity, organism-based, Sprague-Dawley
Design: regimen Daily Repeat, gender Male, age 6 weeks
Settings: in vivo, po, 200 mg/kg, route gavage, dose level High; for APTT / Bas / Eos / Fbg / Hb / Ht / Lym / MCH / MCHC / MCV / Mono / Neu / PT / Plat / RBC / Ret / WBC: tissue Blood; for KIDNEY_L / KIDNEY_R / KIDNEY_TOTAL: tissue Kidney; for LIVER: tissue Liver; for A/G / ALP / ALT / AST / BUN / CRE / Ca / Cl / DBIL / GLC / IP / K / LDH / Na / PL / RALB / TBIL / TC / TG / TP / gamma-GTP: tissue Plasma

With `Cn1c(=O)c2[nH]cnc2n(C)c1=O.O` [THEOPHYLLINE] the TERMINAL_BW (72 h, time 3 day) was 221.1 g, the APTT (72 h, time 3 day) was 22.1 s and the Bas (72 h, time 3 day) was 0%. The Eos (72 h, time 3 day) was 0.5%, the Fbg (72 h, time 3 day) was 438.5 mg/dL and the Hb (72 h, time 3 day) was 15 g/dL. It also gave a Ht (72 h, time 3 day) of 44.8%, a Lym (72 h, time 3 day) of 77.8% and an MCH (72 h, time 3 day) of 21.1 pg. It also gave an MCHC (72 h, time 3 day) of 33.5%, an MCV (72 h, time 3 day) of 63 fL and a Mono (72 h, time 3 day) of 3.8%. For the same compound, the Neu (72 h, time 3 day) was 15.8%, the PT (72 h, time 3 day) was 16.7 s and the Plat (72 h, time 3 day) was 134.2 x10_4/uL. For the same compound, the RBC (72 h, time 3 day) was 711.5 x10_4/ul, the Ret (72 h, time 3 day) was 6.6% and the WBC (72 h, time 3 day) was 107.4 x10_2/uL. For the same compound, the KIDNEY_L (72 h, time 3 day) was 0.9 g, the KIDNEY_R (72 h, time 3 day) was 0.9 g and the KIDNEY_TOTAL (72 h, time 3 day) was 1.9 g. The LIVER (72 h, time 3 day) was 9.5 g, the A/G (72 h, time 3 day) was 1.2 and the ALP (72 h, time 3 day) was 1278.8 IU/L. For the same compound, the ALT (72 h, time 3 day) was 42.5 IU/L, the AST (72 h, time 3 day) was 73.2 IU/L and the BUN (72 h, time 3 day) was 15.2 mg/dL. For the same compound, the CRE (72 h, time 3 day) was 0.2 mg/dL, the Ca (72 h, time 3 day) was 10.9 mg/dL and the Cl (72 h, time 3 day) was 106.8 meq/L. The DBIL (72 h, time 3 day) was 0 mg/dL, the GLC (72 h, time 3 day) was 178.8 mg/dL and the IP (72 h, time 3 day) was 7.3 mg/dL. For the same compound, the K (72 h, time 3 day) was 4.3 meq/L, the LDH (72 h, time 3 day) was 198.8 IU/L and the Na (72 h, time 3 day) was 141.8 meq/L. The PL (72 h, time 3 day) was 122.8 mg/dL, the RALB (72 h, time 3 day) was 3.1 g/dL and the TBIL (72 h, time 3 day) was 0.0075 mg/dL. For the same compound, the TC (72 h, time 3 day) was 75 mg/dL, the TG (72 h, time 3 day) was 37.8 mg/dL and the TP (72 h, time 3 day) was 5.7 g/dL. It also gave a gamma-GTP (72 h, time 3 day) of 1.5 IU/L, a TERMINAL_BW ([…], time 7 day) of 254.4 g and a TERMINAL_BW ([…], time 14 day) of 288.8 g. For the same compound, the TERMINAL_BW ([…], time 28 day) was 371.8 g, the APTT ([…], time 7 day) was 23 s and the Bas ([…], time 7 day) was 0%. For the same compound, the Eos ([…], time 7 day) was 0.2%, the Fbg ([…], time 7 day) was 354 mg/dL and the Hb ([…], time 7 day) was 14.6 g/dL. The Ht ([…], time 7 day) was 43%, the Lym ([…], time 7 day) was 67.4% and the MCH ([…], time 7 day) was 20.2 pg. For the same compound, the MCHC ([…], time 7 day) was 33.9%, the MCV ([…], time 7 day) was 59.7 fL and the Mono ([…], time 7 day) was 4.6%. The Neu ([…], time 7 day) was 26%, the PT ([…], time 7 day) was 16.7 s and the Plat ([…], time 7 day) was 117.7 x10_4/uL. It also gave an RBC ([…], time 7 day) of 720.6 x10_4/ul, a Ret ([…], time 7 day) of 6% and a WBC ([…], time 7 day) of 116.9 x10_2/uL. The APTT ([…], time 14 day) was 24.8 s, the Bas ([…], time 14 day) was 0% and the Eos ([…], time 14 day) was 0.2%. It also gave a Fbg ([…], time 14 day) of 337 mg/dL, a Hb ([…], time 14 day) of 15.5 g/dL and a Ht ([…], time 14 day) of 45.7%. It also gave a Lym ([…], time 14 day) of 77%, an MCH ([…], time 14 day) of 20.1 pg and an MCHC ([…], time 14 day) of 33.8%. The MCV ([…], time 14 day) was 59.5 fL, the Mono ([…], time 14 day) was 3.2% and the Neu ([…], time 14 day) was 18.2%. It also gave a PT ([…], time 14 day) of 16.1 s, a Plat ([…], time 14 day) of 102.3 x10_4/uL and an RBC ([…], time 14 day) of 767.8 x10_4/ul. It also gave a Ret ([…], time 14 day) of 4.7%, a WBC ([…], time 14 day) of 128.3 x10_2/uL and an APTT ([…], time 28 day) of 27.4 s. It also gave a Bas ([…], time 28 day) of 0%, an Eos ([…], time 28 day) of 1% and a Fbg ([…], time 28 day) of 349 mg/dL. It also gave a Hb ([…], time 28 day) of 16.1 g/dL, a Ht ([…], time 28 day) of 46.7% and a Lym ([…], time 28 day) of 76.5%. The MCH ([…], time 28 day) was 19.9 pg, the MCHC ([…], time 28 day) was 34.5% and the MCV ([…], time 28 day) was 57.7 fL. It also gave a Mono ([…], time 28 day) of 2.5%, a Neu ([…], time 28 day) of 19% and a PT ([…], time 28 day) of 16.6 s. For the same compound, the Plat ([…], time 28 day) was 91.7 x10_4/uL, the RBC ([…], time 28 day) was 810 x10_4/ul and the Ret ([…], time 28 day) was 3.6%. It also gave a WBC ([…], time 28 day) of 133.1 x10_2/uL, a KIDNEY_L ([…], time 7 day) of 1.1 g and a KIDNEY_R ([…], time 7 day) of 1.1 g. The KIDNEY_TOTAL ([…], time 7 day) was 2.1 g, the KIDNEY_L ([…], time 14 day) was 1.2 g and the KIDNEY_R ([…], time 14 day) was 1.3 g. It also gave a KIDNEY_TOTAL ([…], time 14 day) of 2.5 g, a KIDNEY_L ([…], time 28 day) of 1.4 g and a KIDNEY_R ([…], time 28 day) of 1.4 g. It also gave a KIDNEY_TOTAL ([…], time 28 day) of 2.8 g, an LIVER ([…], time 7 day) of 11.2 g and an LIVER ([…], time 14 day) of 11.7 g. For the same compound, the LIVER ([…], time 28 day) was 15.5 g, the A/G ([…], time 7 day) was 1.2 and the ALP ([…], time 7 day) was 1736.2 IU/L. For the same compound, the ALT ([…], time 7 day) was 58.6 IU/L, the AST ([…], time 7 day) was 79 IU/L and the BUN ([…], time 7 day) was 16.6 mg/dL. For the same compound, the CRE ([…], time 7 day) was 0.2 mg/dL, the Ca ([…], time 7 day) was 10.8 mg/dL and the Cl ([…], time 7 day) was 104.2 meq/L. For the same compound, the DBIL ([…], time 7 day) was 0 mg/dL, the GLC ([…], time 7 day) was 173 mg/dL and the IP ([…], time 7 day) was 8.2 mg/dL. The K ([…], time 7 day) was 4.4 meq/L, the LDH ([…], time 7 day) was 182.6 IU/L and the Na ([…], time 7 day) was 142 meq/L. For the same compound, the PL ([…], time 7 day) was 134.6 mg/dL, the RALB ([…], time 7 day) was 3.3 g/dL and the TBIL ([…], time 7 day) was 0.01 mg/dL. It also gave a TC ([…], time 7 day) of 74 mg/dL, a TG ([…], time 7 day) of 65.6 mg/dL and a TP ([…], time 7 day) of 5.9 g/dL. For the same compound, the gamma-GTP ([…], time 7 day) was 2.2 IU/L, the A/G ([…], time 14 day) was 1.2 and the ALP ([…], time 14 day) was 1300.2 IU/L. The ALT ([…], time 14 day) was 54 IU/L, the AST ([…], time 14 day) was 85 IU/L and the BUN ([…], time 14 day) was 13.8 mg/dL. It also gave a CRE ([…], time 14 day) of 0.2 mg/dL, a Ca ([…], time 14 day) of 10.4 mg/dL and a Cl ([…], time 14 day) of 104.8 meq/L. The DBIL ([…], time 14 day) was 0 mg/dL, the GLC ([…], time 14 day) was 175.5 mg/dL and the IP ([…], time 14 day) was 8.7 mg/dL. For the same compound, the K ([…], time 14 day) was 4.2 meq/L, the LDH ([…], time 14 day) was 137.2 IU/L and the Na ([…], time 14 day) was 141.8 meq/L. For the same compound, the PL ([…], time 14 day) was 128.8 mg/dL, the RALB ([…], time 14 day) was 3.2 g/dL and the TBIL ([…], time 14 day) was 0.02 mg/dL. The TC ([…], time 14 day) was 70.5 mg/dL, the TG ([…], time 14 day) was 64.2 mg/dL and the TP ([…], time 14 day) was 5.8 g/dL. The gamma-GTP ([…], time 14 day) was 2.2 IU/L, the A/G ([…], time 28 day) was 1.1 and the ALP ([…], time 28 day) was 1103 IU/L. It also gave an ALT ([…], time 28 day) of 54 IU/L, an AST ([…], time 28 day) of 92.5 IU/L and a BUN ([…], time 28 day) of 16.5 mg/dL. The CRE ([…], time 28 day) was 0.2 mg/dL, the Ca ([…], time 28 day) was 10.8 mg/dL and the Cl ([…], time 28 day) was 105 meq/L. It also gave a DBIL ([…], time 28 day) of 0 mg/dL, a GLC ([…], time 28 day) of 186.5 mg/dL and an IP ([…], time 28 day) of 7.5 mg/dL. It also gave a K ([…], time 28 day) of 4.1 meq/L, an LDH ([…], time 28 day) of 140.5 IU/L and a Na ([…], time 28 day) of 143 meq/L. It also gave a PL ([…], time 28 day) of 133.5 mg/dL, an RALB ([…], time 28 day) of 3.3 g/dL and a TBIL ([…], time 28 day) of 0.025 mg/dL. For the same compound, the TC ([…], time 28 day) was 66 mg/dL, the TG ([…], time 28 day) was 90 mg/dL and the TP ([…], time 28 day) was 6.5 g/dL. It also gave a gamma-GTP ([…], time 28 day) of 2.5 IU/L.
